# From PubChem BioAssay AID2060496 (Molecular Pharmacology Branch, DTP, NCI, 2025)
# “And” between values parts separate entries of the source, which are not always exact repeats. Identical values can stand only once.
# System: 276233-004-R-J1-PDC complex spheroid viability
# Assay: Anticancer human tumor 276233-004-R-J1-PDC patient-derived colon adenocarcinoma cell line growth inhibition [GQUAD]
# Conditions: for viability, T/C: stronger effect = lower value
# Excerpt: DNA G-quadruplex Stabilizer Agents in Combinations in Complex Spheroids
# A high-throughput screen of multi-cell type tumor spheroids was designed to identify active combinations of DNA G-quadruplex stabilizer agents and targeted small molecules. Complex spheroids include a stromal component modeled by human endothelial cells (HUVEC) and fibroblasts modeled by human mesenchymal stem cells (MSCs). The concentration ranges selected for each drug and investigational agent were based upon clinically achievable concentrations if the clinical Cmax of the agent was known.
# Compounds. The drugs and investigational agents: pidnarulex (CX-5461; NSC782164), APTO-253 (NSC789042), BRACO-19 (NSC847499), peposertib (NSC802822), ceralasertib (NSC780249), elimusertib (NSC800525), camonsertib (NSC841442), AZD-1390 (NSC803789), olaparib (NSC753686), talazoparib (NSC767125), ART-558 (NSC835418), sotorasib (NSC818433), MRTX-1133 (NSC836407), SN-38 (NSC673596), topotecan (NSC609699), etoposide (NSC141540), doxorubicin (NSC123127), gemcitabine (NSC613327), 5-fluorouracil (NSC19893), paclitaxel (NSC125973), vemurafenib (NSC761431), panobinostat (NSC761190), R-306465 (JNJ-16241199; NSC773264), adavosertib (NSC754352), TP-3654 (NSC805149), carboplatin (NSC241240), KSQ-4279 (NSC840948), and staurosporine (NSC755774) were obtained from the National Cancer Institute (NCI) Developmental Therapeutics Program Chemical Repository (34). The FDA-approved anticancer drug set is available from the NCI Developmental Therapeutics Program. […] The stock solutions were prepared in dimethyl sulfoxide (DMSO, Sigma-Aldrich, St. Louis, MO, cat. D2650) at 800-fold the tested concentration and stored at -70 degrees C prior to their use. All drugs and investigational agents were tested over a range starting from a high concentration at or near the clinical Cmax and decreasing in half-log increments. If the clinical Cmax for an agent had not been determined, the highest concentration tested was 10 microM.
# 2.3 Cell Culture. All cells were maintained in an incubator at 37 degrees C and 5% CO2 with 95% humidity. The PDC lines were cultured according to standard operating procedures established by the NCI PDMR. All PDCs were thawed and cultured in Matrigel-coated flasks prepared with a working solution of 1X Ham's F-12 nutrient mix, without supplementation (Invitrogen, cat. 11765054), 100 U/mL penicillin-streptomycin (Invitrogen, cat. 15140122), and 2.5% Matrigel (Corning Inc., cat. 354248) for the first three passages. The 857933-349-R-J2-PDC line was cultured in 6C/Colon 1B media, which includes advanced DMEM/F-12 (Thermo Fisher Scientific, cat. 12634028), 10 mM HEPES (Thermo Fisher Scientific, cat. 15630080), 1X GlutaMAX supplement (Thermo Fisher Scientific, cat. 35050061), 0.1 mg/mL primocin (InvivoGen, cat. ant-pm-2), 10% defined fetal bovine serum, heat inactivated (HyClone Laboratories Inc., cat. SH30070.03HI), 50% L-WRN conditioned media (ATCC, cat. CRL-3276), 1.25 mM N-Acetyl-L-cysteine (Sigma-Aldrich, cat. A9165), 10 mM nicotinamide (Sigma-Aldrich, cat. N0636), 1X B-27 supplement (Thermo Fisher Scientific, cat. 17504044), 1X N-2 supplement (Thermo Fisher Scientific, cat. 17502048), 10 microM Y-27632 dihydrochloride (Tocris Bioscience, cat. 1254), and 50 ng/mL human EGF recombinant protein (Thermo Fisher Scientific, cat. PHG0311). The 485176-168-R4-J1-PDC line was cultured in Panc media, which includes all 6C/Colon 1B media components plus 100 ng/mL human FGF-10 (Thermo Fisher Scientific, cat. 100-26), 500 nM SB-431542 (Selleckchem, cat. S1067), and gastrin (Tocris, cat. 3006).
# […]
# 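Also: spheroids exposed to drugs for seven days.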
# 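For viability, T/C in this document: 100% = DMSO vehicle control viability.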
structure (smiles),measurement,setting,value
CN(C)c1ccc(Nc2c3ccc(NC(=O)CCN4CCCC4)cc3nc3cc(NC(=O)CCN4CCCC4)ccc23)cc1,"viability, T/C",compound 0.316 µM,65% [middle of 12 runs]
same,"viability, T/C",compound 1 µM,64.4% [middle of 12 runs]
same,"viability, T/C",compound 3.16 µM,61.7% [middle of 12 runs]
same,"viability, T/C",compound 10 µM,49.8% [middle of 12 runs]
same,IC50,"compound alone, run of 02/26/2024",> 10000 nM and 4020 nM and 5570 nM
CCCS(=O)(=O)Nc1ccc(F)c(C(=O)c2c[nH]c3ncc(-c4ccc(Cl)cc4)cc23)c1F,"viability, T/C",compound 0.0316 µM,85% and 77.1% and 99.3%
same,"viability, T/C",compound 0.1 µM,91.3% and 96.2% and 84.7%
same,"viability, T/C",compound 0.316 µM,85.8% and 98.6% and 111%
same,"viability, T/C",compound 1 µM,97.5% and 83.7% and 96.3%
same,"viability, T/C",compound 3.16 µM,79.2% and 91% and 121%
same,"viability, T/C",compound 10 µM,56.8% and 59.4% and 76.4%
same,IC50,curve of compound,> 10000 nM
CC1COCCN1c1cc(C2(S(C)(=N)=O)CC2)nc(-c2ccnc3[nH]ccc23)n1 (centres undefined),"viability, T/C",compound 0.0316 µM,103% (2×) and 89.1%
same,"viability, T/C",compound 0.1 µM,92.5% and 89% and 63%
same,"viability, T/C",compound 0.316 µM,96.4% and 75.8% and 79.6%
same,"viability, T/C",compound 1 µM,93.7% and 76% and 77.1%
same,"viability, T/C",compound 3.16 µM,89.8% and 75.2% and 74.9%
same,"viability, T/C",compound 10 µM,68.3% and 69.6% and 60.1%
same,IC50,curve of compound,> 10000 nM
Cn1ncnc1[C@H]1c2n[nH]c(=O)c3cc(F)cc(c23)N[C@@H]1c1ccc(F)cc1,"viability, T/C",compound 0.000999 µM,108% and 94.2% and 85.9%
same,"viability, T/C",compound 0.00316 µM,84.1% and 111% and 82.8%
same,"viability, T/C",compound 0.00999 µM,97.9% and 83.5% and 81.7%
same,"viability, T/C",compound 0.0316 µM,80% and 83.1% and 87.4%
same,"viability, T/C",compound 0.0999 µM,108% and 84.9% and 87.8%
same,"viability, T/C",compound 0.316 µM,102% and 89.6% and 80.9%
same,IC50,curve of compound,> 316 nM
O=C(NO)c1cnc(N2CCN(S(=O)(=O)c3ccc4ccccc4c3)CC2)nc1 + CN(C)c1ccc(Nc2c3ccc(NC(=O)CCN4CCCC4)cc3nc3cc(NC(=O)CCN4CCCC4)ccc23)cc1,IC50,"curve of first compound, second compound 0.0316 µM",564 nM
same,IC50,"curve of first compound, second compound 0.1 µM",382 nM
same,IC50,"curve of first compound, second compound 0.316 µM",291 nM
same,IC50,"curve of first compound, second compound 1 µM",385 nM
same,IC50,"curve of first compound, second compound 3.16 µM",207 nM
same,IC50,"curve of first compound, second compound 10 µM",< 31.6 nM
same,"viability, T/C","second compound 0.0316 µM, first compound 0.0316 µM",97.6%
same,"viability, T/C","second compound 0.0316 µM, first compound 0.1 µM",110%
same,"viability, T/C","second compound 0.0316 µM, first compound 0.316 µM",93.9%
same,"viability, T/C","second compound 0.0316 µM, first compound 1 µM",6.51%
same,"viability, T/C","second compound 0.0316 µM, first compound 3.16 µM",1.16%
same,"viability, T/C","second compound 0.0316 µM, first compound 10 µM",0.86%
same,"viability, T/C","second compound 0.1 µM, first compound 0.0316 µM",77.9%
same,"viability, T/C","second compound 0.1 µM, first compound 0.1 µM",138%
same,"viability, T/C","second compound 0.1 µM, first compound 0.316 µM",59.3%
same,"viability, T/C","second compound 0.1 µM, first compound 1 µM",5.11%
same,"viability, T/C","second compound 0.1 µM, first compound 3.16 µM",0.78%
same,"viability, T/C","second compound 0.1 µM, first compound 10 µM",1.12%
same,"viability, T/C","second compound 0.316 µM, first compound 0.0316 µM",61%
same,"viability, T/C","second compound 0.316 µM, first compound 0.1 µM",90.4%
same,"viability, T/C","second compound 0.316 µM, first compound 0.316 µM",48%
same,"viability, T/C","second compound 0.316 µM, first compound 1 µM",4.4%
same,"viability, T/C","second compound 0.316 µM, first compound 3.16 µM",1.75%
same,"viability, T/C","second compound 0.316 µM, first compound 10 µM",1.22%
same,"viability, T/C","second compound 1 µM, first compound 0.0316 µM",70%
same,"viability, T/C","second compound 1 µM, first compound 0.1 µM",85.4%
same,"viability, T/C","second compound 1 µM, first compound 0.316 µM",59.9%
same,"viability, T/C","second compound 1 µM, first compound 1 µM",1.33%
same,"viability, T/C","second compound 1 µM, first compound 3.16 µM",1.89%
same,"viability, T/C","second compound 1 µM, first compound 10 µM",2.09%
same,"viability, T/C","second compound 3.16 µM, first compound 0.0316 µM",74.2%
same,"viability, T/C","second compound 3.16 µM, first compound 0.1 µM",68.7%
same,"viability, T/C","second compound 3.16 µM, first compound 0.316 µM",38.8%
same,"viability, T/C","second compound 3.16 µM, first compound 1 µM",3.01%
same,"viability, T/C","second compound 3.16 µM, first compound 3.16 µM",1.99%
same,"viability, T/C","second compound 3.16 µM, first compound 10 µM",0.85%
same,"viability, T/C","second compound 10 µM, first compound 0.0316 µM",35.5%
same,"viability, T/C","second compound 10 µM, first compound 0.1 µM",45.6%
same,"viability, T/C","second compound 10 µM, first compound 0.316 µM",25.5%
same,"viability, T/C","second compound 10 µM, first compound 1 µM",5.18%
same,"viability, T/C","second compound 10 µM, first compound 3.16 µM",1.04%
same,"viability, T/C","second compound 10 µM, first compound 10 µM",1.85%
C=CC(=O)N1CCN(c2nc(=O)n(-c3c(C)ccnc3C(C)C)c3nc(-c4c(O)cccc4F)c(F)cc23)C(C)C1 (centres undefined),"viability, T/C",compound 0.0316 µM,107% and 92.8% and 91.6%
same,"viability, T/C",compound 0.1 µM,89.2% and 119% and 77.8%
same,"viability, T/C",compound 0.316 µM,102% and 80.8% and 89%
same,"viability, T/C",compound 1 µM,96.7% and 101% and 87.3%
same,"viability, T/C",compound 3.16 µM,98.4% and 92.5% and 85.8%
same,"viability, T/C",compound 10 µM,91.2% and 93.1% and 84.2%
same,IC50,curve of compound,> 10000 nM
COc1ccc([C@@H](O)c2cc(-c3ncnc4cc(N5CCOCC5)ccc34)c(F)cc2Cl)nn1,"viability, T/C",compound 0.0316 µM,91.6% and 98.8% and 86%
same,"viability, T/C",compound 0.1 µM,81% and 98.4% and 55%
same,"viability, T/C",compound 0.316 µM,95.6% and 97.8% and 80.1%
same,"viability, T/C",compound 1 µM,75.1% and 80.2% and 68.1%
same,"viability, T/C",compound 3.16 µM,75.5% and 68% and 68.3%
same,"viability, T/C",compound 10 µM,61.6% and 65.6% and 59.3%
same,IC50,curve of compound,> 10000 nM
Cc1[nH]c2ccccc2c1CCNCc1ccc(/C=C/C(=O)NO)cc1,"viability, T/C",compound 0.000999 µM,86.2% and 100% and 95.1%
same,"viability, T/C",compound 0.00316 µM,71% and 96.2% and 83.8%
same,"viability, T/C",compound 0.00999 µM,96.1% and 81.2% and 98.1%
same,"viability, T/C",compound 0.0316 µM,80.3% and 84% and 82.8%
same,"viability, T/C",compound 0.0999 µM,80.9% and 60.8% and 86.1%
same,"viability, T/C",compound 0.316 µM,19.3% and 31.7% and 41.9%
same,IC50,curve of compound,178 nM and 155 nM and 257 nM
